# From US6294564A, “Benzimidazoles and benzoxazoles” (Byk Gulden Lomberg Chemische Fabrik GmbH, priority 1998, dated 2001)
# Tested on: PDE4
# Experiment: Inhibition of PDE4 Activity (activity test according to Bauer and Schwabe adapted to microtitre plates)
# Format: biochemical
# Conditions: Inhibition of the PDE4 Activity; inhibitory concentration as -log IC50 (mol/l)
row,SMILES,-log IC50
1,"COc1ccc(-c2nc3cc(C(N)=O)ccc3[nH]2)c2c1OC1(CCCC1)C2 [compound 2, 2-(2,3-Dihydro-7-methoxybenzofuran-2-spiro-1'-cyclopentan-4-yl)benzimidazole-5-carboxamide]",7.69
2,"COc1ccc(-c2nc3cc(C(=O)O)ccc3[nH]2)c2c1OC1(CCCC1)C2 [compound 1, 2-(2,3-Dihydro-7-methoxybenzofuran-2-spiro-1'-cyclopentan-4-yl)benzimidazole-5-carboxylic acid]",7.87
3,"COc1ccc(-c2nc3cc(C(=O)O)ccc3o2)c2c1OC1(CCOCC1)C2 [compound 6, 2-(2,3-Dihydro-7-methoxybenzofuran-2-spiro-4'-tetrahydropyran-4-yl)benzoxazole-5-carboxylic acid]",7.05
4,"COc1ccc(-c2nc3cc(C(=O)O)ccc3o2)c2c1OC1(CCCC1)C2 [compound 3, 2-(2,3-Dihydro-7-methoxybenzofuran-2-spiro-1'-cyclopentan-4-yl)benzoxazole-5-carboxylic acid]",7.65

# Second part, the compound after the results:
row,-log IC50,SMILES
1,6.90,"COc1ccc(-c2nc3ccc(C(=O)OCCN4CCOCC4)cc3o2)c2c1OC1(CCCC1)C2 [compound 9, 2-morpholin-4-ylethyl 2-(2,3-dihydro-7-methoxybenzofuran-2-spiro-1'-cyclopentan4-yl)-benzoxazole-6-carboxylate]"
2,6.85,"COc1ccc(-c2nc3ccc(C(=O)O)cc3o2)c2c1OC1(CCOCC1)C2 [compound 11, 2-(2,3-Dihydro-7-methoxybenzofuran-2-spiro-4'-tetrahydropyran-4-yl) benzoxazole-6-carboxylic acid]"
3,6.42,"COc1ccc(-c2nc3ccc(C(N)=O)cc3o2)c2c1OC1(CCOCC1)C2 [compound 12, 2-(2,3-Dihydro-7-methoxybenzofuran-2-spiro-4'-tetrahydropyran-4-yl)benzoxazole-6-carboxamide]"
4,6.80,"COc1ccc(-c2nc3cc(C(N)=O)ccc3o2)c2c1OC1(CCOCC1)C2 [compound 7, 2-(2,3-Dihydro-7-methoxybenzofuran-2-spiro-4'-tetrahydropyran-4-yl)benzoxazole-5-carboxamide]"
5,8.21,"COc1ccc(-c2nc3ccc(C(=O)O)cc3o2)c2c1OC1(CCCC1)C2 [compound 8, 2-(2,3-Dihydro-7-methoxybenzofuran-2-spiro-1'-cyclopentan-4-yl)benzoxazole-6-carboxylic acid]"
